Source: patent US9051351B2, “Hepatocyte growth factor mimics as therapeutic agents” (Washington State University, priority 2011, dated 2015)
Entries after “also recorded” stand apart in the source; their conditions may differ. Where a SMILES comes first, the peptide text is derived from it. [ ]: non-standard residue; d: D form. The star is where a group is joined. Hexanoyl = CCCCCC(=O)*; Ahx = NCCCCCC(=O)O

Assays:
[1] = system: CA1 hippocampal neurons; assay: Spinogenesis in organotypic hippocampal slice cultures; type: cell-based, rat; conditions: 10^−12 M Nle1-AngIV or Dihexa, 10 ng/ml HGF; 2 days
Description: (§1) Hippocampi from P4 Sprague Dawley rats were cultured as previously described (Wayman, hnpey et al. 2006). Briefly, 400 μm slices were cultured on (Milipore, Billerica, Mass.) for 3 days after which they were biolistically transfected with tomato fluorescent protein (TFP) using a Helios Gen Gun (BioRad, Hercules, Calif.), according to the manufacturer's protocol, to visualize dendritic arbors. Following a 24 hour recovery period slices were stimulated with vehicle (H2O), 1 pM Nle1-AngIV or Dihexa for 2 days. Slices were fixed and mounted. Hippocampal CA1 neuronal processes were imaged and measured as described above.
as §1, with “Impey” for “hnpey”, “Gene” for “Gen”, “with” for “with vehicle (H2O),”, “Slices were fixed and mounted.” left out
Hippocampi from P4 Sprague Dawley rats were cultured as previously described (Wayman, Impey et al. 2006). […] Hippocampal CA1 neuronal processes were imaged and measured as described above.

[2] = system: c-Met; assay: Augmentation of HGF-dependent c-Met phosphorylation in HEK293 cells; type: cell-based, human; conditions: HEK 293 cells, HGF+/−Dihexa, 30 minutes
Description: HGF mimetic activity was typically assessed by one or both of two methods: augmentation of HGF-dependent c-Met phosphorylation in HEK293 cells, or 2) augmentation of HGF-dependent cell scattering in MDCK cells. All the compounds in Family one were tested using the c-Met phosphorylation assay. […]
Human embryonic kidney cells 293 (HEK293), Madin Darby canine kidney cells (MDCK), and B16F10 murine melanoma cells were grown in DMEM, 10% fetal bovine serum (FBS). Cells were grown to 90-100% confluency before use. For most but not all studies HEK and MDCK cells were serum starved for 24 hours prior to the initiation of drug treatment.
HEK293 cells were seeded in 6 well tissue culture plates and grown to 95% confluency in DMEM containing 10% FBS. […] The lysate was clarified by centrifugation at 15,000 g for 15 minutes, protein concentrations were determined using the BCA total protein assay, and then appropriate volumes of the lysates were diluted with 2× reducing Laemmli buffer and heated for ten minutes at 95° C. […] Proteins were visualized using the Supersignal West Pico Chemiluminescent Substrate system (Pierce, Fenton, Mo.) and molecular weights determined by comparison to protein ladders (BenchMark, Invitrogen; and Kaleidoscope, BioRad). Images were digitized and analyzed using a UVP phosphoimager.

[3] = system: hippocampal neurons; assay: Growth factor deprivation of dissociated hippocampal neurons; type: cell-based; conditions: starved 72 hrs +/− HGF 5 ng/ml and/or Dihexa
Description: FIG. 46. […] Dissociated hippocampal neurons were starved for 72 hrs+/−HGF at sub-threshold concentrations 5 ng/ml and or Dihexa at 2 different concentrations 10^−8M and […]. (**p<0.001,*** p<0.0001; Mean+/−SEM).

[4] = in vitro; conditions: male, rat, microsomes, pH 7.38

Compound: CCCCCC(=O)N[C@@H](Cc1ccc(O)cc1)C(=O)N[C@H](C(=O)NCCCCCC(N)=O)[C@@H](C)CC [Dihexa, N-hexanoic-Tyr-Ile-(6)-aminohexanoic amide] (Hexanoyl-Tyr-Ile-[Ahx]-NH2)
- spines per 50 μm dendrite length in CA1 hippocampal neurons [1]: 11 spines per 50 μm dendrite length
- augmentation of HGF activation (phosphorylation) of c-Met [2]: dramatically augment the ability of HGF to activate c-Met; also recorded: markedly augments the ability of HGF to signal to c-Met; also recorded: work synergistically to activate c-Met
- protection of neurons from growth factor deprivation [3]: act synergistically to protect neurons; also recorded: protects neurons from growth factor deprivation
- half-life at 5 µM [4]: 8.49 h
- microsomal CLint at 5 µM [4]: 2.72 µL/min/mg
